Measured values taken from patent US8354419B2, “Benzimidazole analogues for the treatment or prevention of flavivirus infections” (Vertex Pharmaceuticals Incorporated, priority 2009, dated 2013).

These molecules were tested on HCV (Ib) RNA replication (assay: Cell-based luciferase reporter HCV (1b) RNA replication assay (replicon cell lines Huh-7 5.2 and ET)). Details: HCV 1b genotype replicon, luciferase readout, 4 days incubation; read-out: EC50_1b.
Set-up: species or system Hepatitis C virus
Procedure, shortened: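 Compounds were tested at eleven concentrations in duplicate over 4 days at 37 °C, 5% CO2. The cells were luciferase-reporter HCV 1b replicon lines 5.2 (NS5A adaptive mutation) or ET (NS4B mutation). Luminescence of lysates was measured, and IC50s were derived by nonlinear curve fitting.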

SMILES | EC50 [nM]
COC(=O)NC(C(=O)N1CCCC1c1nc2cc(-c3ccc(-c4ccc5nc(C6CCCN6C(=O)C(NC(=O)OC)C(C)(C)C)[nH]c5c4)cc3)ccc2[nH]1)C(C)(C)C (stereo not drawn) [Compound 193] | 5 to 5000

Same assay, conditions: Hepatitis C virus, Huh-7, 96 h, HCV 1b genotype replicon, luciferase readout, 4 days incubation; read-out: EC50_1b

SMILES | EC50 [nM]
COC(=O)N[C@H](C(=O)N1C[C@@H](C)C[C@H]1c1nc2cc(-c3ccc4cc(-c5ccc6[nH]c([C@@H]7C[C@H](C)CN7C(=O)[C@@H](NC(=O)OC)C(C)C)nc6c5)ccc4c3)ccc2[nH]1)C(C)C [Compound 330] | ≤ 5
COC(=O)N[C@H](C(=O)N1CCC[C@H]1c1nc2cc(-c3cnc(-c4ccc5[nH]c([C@@H]6CCCN6C(=O)[C@@H](NC(=O)OC)C(C)C)nc5c4)nc3)ccc2[nH]1)C(C)C [Compound 15, ((S)-1-{(S)-2-[5-(5-{2-[(S)-1-((S)-2-Methoxycarbonylamino-3-methyl-butyryl)-pyrrolidin-2-yl]-1H-benzoimidazol-5-yl}-pyrimidin-2-yl)-1H-benzoimidazol-2-yl]-pyrrolidine-1-carbonyl}-2-methyl-propyl)-carbamic acid methyl ester] | ≤ 5
COC(=O)N[C@H](C(=O)N1C[C@@H](C)C[C@H]1c1nc2cc(-c3ccc(-c4ccc5[nH]c([C@@H]6C[C@H](C)CN6C(=O)[C@H](C(C)C)N(C)C(=O)OC)nc5c4)cc3F)ccc2[nH]1)C(C)C [Compound 285] | ≤ 5
CC(C)[C@H](NC(=O)O[C@H]1CCOC1)C(=O)N1CCC[C@H]1c1nc2cc(-c3csc(-c4ccc5[nH]c([C@@H]6CCCN6C(=O)[C@@H](NC(=O)O[C@H]6CCOC6)C(C)C)nc5c4)n3)ccc2[nH]1 [Compound 160] | 5 to 5000
CC(C)(C)OC(=O)N1CC(F)(F)C[C@H]1C(=O)N1CCC[C@H]1c1nc2cc(C#Cc3ccc4[nH]c([C@@H]5CCCN5C(=O)[C@@H]5CC(F)(F)CN5C(=O)OC(C)(C)C)nc4c3)ccc2[nH]1 [Compound 114] | 5 to 5000
COC(=O)N(C)[C@H](C(=O)N1C[C@@H](C)C[C@H]1c1nc2cc(-c3cc(C)c(-c4ccc5[nH]c([C@@H]6C[C@H](C)CN6C(=O)[C@H](C(C)C)N(C)C(=O)OC)nc5c4)cc3C)ccc2[nH]1)C(C)C [Compound 277] | ≤ 5
CC(C)[C@@H](NC(=O)O[C@H]1CCOC1)C(=O)N1CCC[C@H]1c1nc2cc(C#Cc3ccc4[nH]c([C@@H]5CCCN5C(=O)[C@H](NC(=O)O[C@H]5CCOC5)C(C)C)nc4c3)ccc2[nH]1 [Compound 82] | 5 to 5000
COC(=O)N[C@H](C(=O)N1[C@@H](C)CC[C@H]1c1nc2cc(-c3cc4sc(-c5ccc6[nH]c([C@@H]7CC[C@H](C)N7C(=O)[C@@H](NC(=O)OC)C(C)C)nc6c5)cc4s3)ccc2[nH]1)C(C)C [Compound 321] | ≤ 5
CC(C)(C)OC(=O)NC(C)(C)C(=O)N1CCC[C@H]1c1nc2cc(C#Cc3ccc4[nH]c([C@@H]5CCCN5C(=O)C(C)(C)NC(=O)OC(C)(C)C)nc4c3)ccc2[nH]1 [Compound 128] | 5 to 5000
COC(=O)N[C@H](C(=O)N1C[C@@H](C)C[C@H]1c1nc2cc(-c3ccc(-c4ccc5[nH]c([C@@H]6C[C@H](C)CN6C(=O)[C@H](C(C)C)N(C)C(=O)OC)nc5c4)cc3)ccc2[nH]1)C(C)C [Compound 253] | ≤ 5
COC(=O)N[C@H](C(=O)N1CCC[C@H]1c1nc2cc(C#Cc3ccc4[nH]c([C@@H]5CCCN5C(=O)[C@@H](NC(=O)OC)C(C)C)nc4c3)ccc2[nH]1)C(C)C [Compound 37, {(S)-1-[(S)-2-(5-{2-[(S)-1-((S)-2-Methoxycarbonylamino-3-methyl-butyryl)-pyrrolidin-2-yl]-1H-benzoimidazol-5-ylethynyl}-1H-benzoimidazol-2-yl)-pyrrolidine-1-carbonyl]-2-methyl-propyl}-carbamic acid methyl ester] | ≤ 5
Cn1c([C@@H]2CCCN2C(=O)OC(C)(C)C)nc2cc(-c3ccc(-c4ccc5c(c4)nc([C@@H]4CCCN4C(=O)OC(C)(C)C)n5C)cc3)ccc21 [Compound 225] | > 5000
COC(=O)N[C@H](C(=O)N1C[C@@H](C)C[C@H]1c1nc2cc(-c3ccc(-c4ccc5[nH]c([C@@H]6C[C@H](C)CN6C(=O)[C@@H](NC(=O)OC)C(C)C)nc5c4)c(C(=O)OC)c3)ccc2[nH]1)C(C)C [Compound 268] | ≤ 5
COC(=O)N[C@H](C(=O)N1CCC[C@H]1c1nc2cc(-c3ccc(-c4ccc5nc([C@@H]6CCCN6C(=O)[C@@H](NC(=O)OC)C(C)C)[nH]c5c4)c4ocnc34)ccc2[nH]1)C(C)C [Compound 173] | ≤ 5
O=C(OCc1ccccc1)N1CCCC[C@H]1c1nc2cc(C#CC#Cc3ccc4[nH]c([C@@H]5CCCCN5C(=O)OCc5ccccc5)nc4c3)ccc2[nH]1 [Compound 41, (S)-2-(5-{4-[2-((S)-1-Benzyloxycarbonyl-piperidin-2-yl)-1H-benzoimidazol-5-yl]-buta-1,3-diynyl}-1H-benzoimidazol-2-yl)-piperidine-1-carboxylic acid benzyl ester] | 5 to 5000
COC(=O)N[C@H](C(=O)N1C[C@@H](C)C[C@H]1c1nc2cc(-c3sc4c(C)c(-c5ccc6[nH]c([C@@H]7C[C@H](C)CN7C(=O)[C@@H](NC(=O)OC)C(C)C)nc6c5)sc4c3C)ccc2[nH]1)C(C)C [Compound 331] | ≤ 5
COC(=O)N[C@H](C(=O)N1CCC[C@H]1c1nc2cc(-c3ccc(-c4ccc5nc([C@@H]6CCCN6C(=O)[C@@H](NC(=O)OC)C(C)C)[nH]c5c4)cc3C(=O)O)ccc2[nH]1)C(C)C [Compound 198] | ≤ 5
COC(=O)N[C@H](C(=O)N1CCC[C@H]1c1nc2cc(C#Cc3ccc4nc([C@@H]5CCCN5C(=O)[C@@H](O)C(C)C)[nH]c4c3)ccc2[nH]1)C(C)C [Compound 76] | ≤ 5
COC(=O)N[C@H](C(=O)N1CCC[C@H]1c1nc2cc(C#Cc3ccc4nc([C@@H]5CCCN5C(=O)[C@@H](NC(=O)OC)C5CCCCC5)[nH]c4c3)ccc2[nH]1)C(C)C [Compound 115] | ≤ 5
CC(C)[C@H](NC(=O)[C@@H]1CCC(=O)N1)C(=O)N1CCC[C@H]1c1nc2cc(C#Cc3ccc4[nH]c([C@@H]5CCCN5C(=O)[C@@H](NC(=O)[C@@H]5CCC(=O)N5)C(C)C)nc4c3)ccc2[nH]1 [Compound 87] | > 5000
COC(=O)N[C@H](C(=O)N1CCC[C@H]1c1nc2cc(-c3ccc(-c4ccc5nc([C@@H]6CCCN6C(=O)[C@@H](NC(=O)OC)[C@@H](C)OC)[nH]c5c4)c4c3OCO4)ccc2[nH]1)[C@@H](C)OC [Compound 185] | ≤ 5
COC(=O)N(C)[C@H](C(=O)N1C[C@@H](C)C[C@H]1c1nc2cc(-c3cc(F)c(-c4ccc5[nH]c([C@@H]6C[C@H](C)CN6C(=O)[C@H](C(C)C)N(C)C(=O)OC)nc5c4)cc3F)ccc2[nH]1)C(C)C [Compound 282] | ≤ 5
O=C(OCc1ccccc1)N1CCCC[C@H]1c1nc2cc(C#Cc3ccc4nc([C@@H]5CCCCN5C(=O)OCc5ccccc5)[nH]c4c3)ccc2[nH]1 [Compound 30, (S)-2-{5-[2-((S)-1-Benzyloxycarbonyl-piperidin-2-yl)-1H-benzoimidazol-5-ylethynyl]-1H-benzoimidazol-2-yl}-piperidine-1-carboxylic acid benzyl ester] | 5 to 5000
COC(=O)N[C@@H](C(=O)N1CCC[C@H]1c1nc2cc(-c3ccc(-c4ccc5[nH]c([C@@H]6CCCN6C(=O)[C@H](NC(=O)OC)C(C)C)nc5c4)nn3)ccc2[nH]1)C(C)C [Compound 162] | ≤ 5
COC(=O)N[C@H](C(=O)N1CCC[C@H]1c1nc2ccc(-c3cn(C)c(-c4ccc5nc([C@@H]6CCCN6C(=O)[C@@H](NC(=O)OC)C(C)C)[nH]c5c4)n3)cc2[nH]1)C(C)C [Compound 238] | 5 to 5000
COC[C@H](NC(=O)OC)C(=O)N1CCC[C@H]1c1nc2cc(C#Cc3ccc4nc([C@@H]5CCCN5C(=O)[C@H](COC)NC(=O)OC)[nH]c4c3)ccc2[nH]1 [Compound 71] | ≤ 5
CC[C@H]1C[C@@H](c2nc3cc(-c4ccc(-c5ccc6[nH]c([C@@H]7C[C@H](CC)CN7C(=O)[C@@H](NC(C)OC)C(C)C)nc6c5)cc4)ccc3[nH]2)N(C(=O)[C@@H](NC(=O)OC)C(C)C)C1 (stereo partly drawn) [Compound 302] | ≤ 5
COC(=O)N[C@@H](C)C(=O)N1CCC[C@H]1c1nc2cc(C#Cc3ccc4[nH]c([C@@H]5CCCN5C(=O)[C@H]5CCCO5)nc4c3)ccc2[nH]1 [Compound 56] | ≤ 5
COC(=O)N[C@H](C(=O)N1CCC[C@H]1c1nc2cc(-c3ccc(-c4ccc5nc([C@@H]6CCCN6C(=O)[C@@H](NC(=O)OC)C(C)C)n(C)c5c4)cc3)ccc2[nH]1)C(C)C [Compound 255] | ≤ 5
